Earlier results on 2 molecules are cited in patent US8071623B2, “Amide substituted indazoles as poly(ADP-ribose)polymerase(PARP) inhibitors” (Instituto di Ricerche di Biologia Molecolare P. Angeletti …, priority 2007, dated 2011).

This data set deals with ischemia and reperfusion of the heart. The note with it: rabbits.

As to `NC(=O)c1cccc(N)c1` [3-amino-benzamide], under “single injection 10 mg/kg, one minute before occlusion or one minute before reperfusion”, the “reductions in infarct size in the heart” value was 32-42%. For `Oc1cccc2c(O)nccc12` [1,5-dihydroxyisoquinoline], the reduced infarct size (single injection 1 mg/kg) is recorded as 38-48%.
